Key:
[1] = target: T1, human Eg5 motor domain (Homo sapiens, UniProt P52732); experiment: Eg5 enzyme inhibition test (2): ATPase activity of recombinant human Eg5 motor domain; assay type: biochemical; conditions: tubulin/paclitaxel, 30° C. for 30 minutes, concentration-dependent inhibition
T1 construct: A plasmid expressing the motor domain of human Eg5 was constructed; made in house; host or cells: Escherichia coli BL21 (DE3)
T1 sequence (P52732 18-359 limits assumed): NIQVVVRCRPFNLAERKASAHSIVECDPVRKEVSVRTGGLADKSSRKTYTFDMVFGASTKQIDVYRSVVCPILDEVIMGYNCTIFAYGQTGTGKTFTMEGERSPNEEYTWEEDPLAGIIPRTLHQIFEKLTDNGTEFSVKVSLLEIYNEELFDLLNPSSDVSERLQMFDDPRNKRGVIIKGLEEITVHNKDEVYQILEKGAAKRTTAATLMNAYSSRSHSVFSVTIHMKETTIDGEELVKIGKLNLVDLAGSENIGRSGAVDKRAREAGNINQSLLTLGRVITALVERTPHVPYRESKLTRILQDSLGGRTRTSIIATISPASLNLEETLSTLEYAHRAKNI
Procedure: A recombinant human Eg5 motor domain protein was prepared by referring to the literature [Biochemistry, Vol. 35, p. 2365 (1996)]. A plasmid expressing the motor domain of human Eg5 was constructed, and transformed into Escherichia coli BL21 (DE3). The transformant was cultured at 25° C., and when the OD600 reached 0.74, isopropyl-β-D-thiogalactoside was added at a final concentration of 0.5 mmol/L. The transformant was further cultured for 4 hours, and then the culture medium was centrifuged to collect the cells. The cells were suspended in a buffer and ultrasonicated, and then the sonicated solution was centrifuged to recover the supernatant. The supernatant was purified by cation exchange column chromatography to obtain a partially purified sample. Furthermore, the partially purified sample was purified by gel filtration column chromatography to obtain a finally purified sample.
Measurement of the ATPase activity of Eg5 was carried out by referring to the literatures [EMBO Journal, Vol. 13, p. 751 (1994); Proc. Natl. Acad. Sci. USA, Vol. 89, p. 4884 (1992)]. The following two kinds of solutions were prepared: Solution A consisting of 25 mmol/L piperazine N,N′-bis(ethanesulfonate) (PIPES)/KOH (pH 6.8), 1 mmol/L ethylene glycol-bis(2-aminoethyl ether)tetraacetic acid (EGTA), 2 mmol/L MgCl2, 1 mmol/L dithiothreitol (DTT), 5 μmol/L paclitaxel, 167 μg/mL bovine serum albumin (BSA), 41.7 μg/mL tubulin (Cytoskeleton, Catalog No. TL238), 333 μmol/L MESG substrate (2-amino-6-mercapto-7-methylpurine riboside) (Molecular Probes, Catalog Number E-6646), 1.67 U/mL purine nucleoside phosphorylase (Molecular Probe, Catalog No. E-6646) and 1.33 μg/mL of the human Eg5 motor domain purified sample, and Solution B consisting of 25 mmol/L piperazine N,N′-bis(ethanesulfonate) (PIPES)/KOH (pH 6.8), 1 mmol/L ethylene glycol-bis(2-aminoethyl ether)tetraacetic acid (EGTA), 2 mmol/L MgCl2, 1 mmol/L dithiothreitol (DTT), 5 μmol/L paclitaxel and 2.5 mmol/L ATP. Solution A was dispensed into each well of a 96-well plate as 45 μL portions. Solution B was used to serially dilute a test compound. The diluted test compound solutions in a volume of 30 μL were mixed with Solution A added beforehand in each well of the 96-well plate to start the enzymatic reaction. The enzymatic reaction was performed at 30° C. for 30 minutes. Absorbance at 360 nm, which serves as an index of the ATPase activity, was measured using a plate reader (Molecular Device, SpectraMax 340PC^384). The absorbance observed in the presence of Eg5 and absence of the test compound was defined 100%, and the absorbance observed in the absence of both Eg5 and the test compound was defined 0%. The relative activity was calculated to calculate IC50 value.

[2] = tested on: HCT 116 human colon carcinoma cells; experiment: Antiproliferative activity against HCT 116 human colon carcinoma cells (XTT, 72 hours); assay type: cell-based; conditions: read-out: GI50, concentration of compound which induces 50% inhibition of cell proliferation, HCT 116 cells, 72 hours incubation
Procedure: HCT 116 cells (ATCC No.: CCL-247) were placed on a 96-well microtiter plate (Nunc, 167008) at a density of 1×10^3 cells/well. The plate was incubated in a 5% CO2 incubator at 37° C. for 24 hours, and then to the plate was added test compounds diluted stepwise to […] in total, and the plate was further incubated in a 5% CO2 incubator at 37° C. for 72 hours. To the culture medium, the XTT (sodium 3′-[1-(phenylaminocarbonyl)-3,4-tetrazolium]-bis(4-methoxy-6-nitro)benzenesulfonic acid hydrate) labeling mixture (Roche Diagnostics, 1465015) was dispensed in […] portions, then the plate was incubated in a 5% CO2 incubator at 37° C. for 1 hour, and the absorbance was measured at 490 nm and 655 nm with a microplate spectrophotometer (Bio-Rad, Model 550).
GI50 calculation method: The value (difference in absorbance) was calculated by subtracting the absorbance at 655 nm from the absorbance at 490 nm of each well.

For CCOCCNCCC1(c2ccccc2)SC(NC(=O)C(C)(C)C)=NN1C(=O)C(C)(C)C (stereo not drawn) [Compound 3], the IC50 [1] was ≤ 5 µM.
With CC(C)(C)C(=O)NC1=NN(C(=O)C(C)(C)C)C(CCNCCCN2CCCC2=O)(c2ccccc2)S1 (stereo not drawn) [Compound 9] the GI50 [2] was 0.065 µM and the IC50 [1] was ≤ 5 µM.
In the case of CNCCCC1(c2ccccc2)SC(NC(=O)C(C)(C)C)=NN1C(=O)C(C)(C)C (stereo not drawn) [Compound 23], the IC50 [1] is reported as ≤ 5 µM.
In the case of CC(C)(C)C(=O)NC1=NN(C(=O)C(C)(C)C)C(CCCNCCCO)(c2ccccc2)S1 (stereo not drawn) [Compound 29], the IC50 [1] is reported as ≤ 5 µM.
CC(C)(C)C(=O)NC1=NN(C(=O)C(C)(C)C)C(CCNC(=O)C2CCCN2)(c2ccccc2)S1 (stereo not drawn) [Compound 59] was tested, and the GI50 [2] was < 10 µM and the IC50 [1] was ≤ 5 µM.
In the case of CC(C)(C)C(=O)NC1=NN(C(=O)C(C)(C)C)C(CCCNC(=O)CN)(c2ccccc2)S1 (stereo not drawn) [Compound 73], the IC50 [1] is reported as ≤ 5 µM.
For CC(C)(C)C(=O)NC1=NN(C(=O)C(C)(C)C)C(CCCNC(CO)CO)(c2ccccc2)S1 (stereo not drawn) [Compound 76], the GI50 [2] was < 10 µM and the IC50 [1] was ≤ 5 µM.
CC(C)(C)C(=O)N1N=C(N2CCCCC2=O)SC1(CCCN)c1ccccc1 (stereo not drawn) [Compound 83] was tested, and the IC50 [1] was ≤ 5 µM.
For CN(C)CCS(=O)(=O)NCCCC1(c2ccccc2)SC(N2CCCCC2=O)=NN1C(=O)C(C)(C)C (stereo not drawn) [Compound 85], the GI50 [2] was < 10 µM and the IC50 [1] was ≤ 5 µM.
With CC(=O)N1N=C(NC(=O)C(C)(C)C)SC1(CCCN)c1ccccc1 (stereo not drawn) [Compound 88] the IC50 [1] was ≤ 5 µM.
CC(=O)N1N=C(N2CCCC2=O)SC1(CCCN)c1ccccc1 (stereo not drawn) [Compound 90] was tested, and the IC50 [1] was ≤ 5 µM.
For COC(=O)N1CCN(CCCC2(c3ccccc3)SC(NC(=O)C(C)(C)C)=NN2C(=O)C(C)(C)C)CC1 (stereo not drawn) [Compound 122], the GI50 [2] was < 10 µM and the IC50 [1] was ≤ 5 µM.
CC(=O)N1N=C(N2CCCCC2=O)SC1(CCNC(=O)CCCN(C)C)c1ccccc1 (stereo not drawn) [Compound 144] was tested, and the GI50 [2] was < 10 µM and the IC50 [1] was ≤ 5 µM.
For CC(C)(C)C(=O)NC1=NN(C(=O)C(C)(C)C)C(COC(=O)NCCN2CCCC2)(c2ccccc2)S1 (stereo not drawn) [Compound 181], the GI50 [2] was < 10 µM and the IC50 [1] was ≤ 5 µM.
